Results taken from BindingDB's records for doi:10.1016/j.bmcl.2018.01.029 (Presidio Pharmaceuticals, 2018).
pEC50: −log10 of the molar value.

Assays:
[1] = Inhibition of HCV genotype 4a NS5B polymerase infected in human HuH7 replicon cells by luciferase reporter gene assay
[2] = Inhibition of HCV genotype 1b NS5B polymerase infected in human HuH7 replicon cells by luciferase reporter gene assay
[3] = Inhibition of HCV genotype 1a NS5A polymerase infected in human HuH7 replicon cells by luciferase reporter gene assay
[4] = Inhibition of HCV genotype 3a NS5B polymerase infected in human HuH7 replicon cells by luciferase reporter gene assay
[5] = Inhibition of HCV genotype 2a NS5B polymerase infected in human HuH7 replicon cells by luciferase reporter gene assay
[6] = Inhibition of NS5B polymerase in HCV genotype 1b infected human HuH7 replicon cells assessed as reduction in viral RNA level after 3 days by RT-PCR assay

Compound: CNC(=O)c1c(-c2ccc(F)cc2)oc2cc(N(CCO)S(C)(=O)=O)c(C3CC3)cc12 [HCV 796]
- pEC50 [1]: 7.68
- pEC50 [2]: 7.92
- pEC50 [3]: 7.62
- pEC50 [4]: 7.72
- pEC50 [5]: 7.14
- pEC50 [6]: 8.05

Compound: CNC(=O)c1c(-c2ccc(F)cc2)oc2cc3c(cc12)[C@H](C)O[C@H](CS(C)(=O)=O)CN3S(C)(=O)=O
- pEC50 [1]: 8.15
- pEC50 [2]: 8.52
- pEC50 [3]: 8.40
- pEC50 [4]: 8.00
- pEC50 [5]: 7.74
